Test system: blood vessel growth (angiogenesis)
Assay: The angiogenesis animal model: gel of Example 4 mixed with drug injected to mice, blood vessel growth observed
Format: in vivo
Settings: drug in gel of Example 4, 0.5 mL gel injected, two months old mice, N=2, after 15 days, gel and adjacent tissue
Protocol: The gel solution prepared according the process of Example 4 was mixed with various drugs listed in tablet at room temperature and is injected (0.5 mL gel each) to two months old mice, N=2. Sacrifice the mice after 15 days and take out the gel and its adjacent tissue to observe the blood vessel growth. The results are listed in table 1 and shown in the color pictures supplemented (please refer to attachments).
The tissue taken out was observed by electron microscope and the results were shown as FIG. 2.
In other words, the endothecium cell and blood vessels of the host can develop in the beehive structure of the gel. The results tell us that co-administrate the gel of the present invention and angiogenesis drug did benefit angiogenesis.

Substance: bFGF: angiogenesis-inducing growth factor, 250 ng/ml, mixed with gel of Example 4
- Blood vessel growth state: Angiogenesis is present
